Consider five compounds from PubChem BioAssay (NCI).

Experiment in all cases: DTP human tumour cell line panel, 48 h
The subject of experiment [1] is KM12 colon.
Experiment [2] concerns A549 NSCLC.
Experiment [3] concerns SK-MEL-28 melanoma.
The test system of experiment [4] is T-47D breast.
In experiment [5] the test system is UACC-257 melanoma.
Experiment [6] relates to SF-539 CNS.
The test system of experiment [7] is MOLT-4 leukemia.
Experiment [8] relates to RPMI-8226 leukemia.
Experiment [9] deals with U251 CNS.
In experiment [10] the test system is M14 melanoma.

Values joined by “and” are separate entries in the source; they are usually repeats but may differ in a detail not shown here. Identical values can stand only once.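 A five-concentration, 48-hour dose response in 96-well plates underlies each endpoint, interpolated linearly between surrounding concentrations. Here, GI50 denotes the concentration required for 50% inhibition of growth. At the TGI there is no net growth.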

In the case of `COc1cc2ncnc(Oc3cccc(NC(=O)Nc4cc(C(C)(C)C(F)(F)F)on4)c3)c2cc1OC`, the GI50 is 3.4 µM and 5.28 µM in experiment [1]; 1.9 µM and 2.74 µM in experiment [2]; 0.179 µM and 0.201 µM in [3]; 1.96 µM and 1.67 µM in experiment [4]; 0.132 µM and 0.235 µM in experiment [5]; 2.75 µM and 3.14 µM in [6]. In addition, the GI50 in [7] was 2.46 µM and 2.06 µM; in experiment [8], 2.6 µM and 2.93 µM; in experiment [9], 2.98 µM and 4.09 µM; in experiment [10], 0.105 µM and 0.18 µM. The TGI in [1] was 14 µM and > 10 µM; in experiment [2], 40.8 µM and > 10 µM; in experiment [3], 8.03 µM and 3.58 µM; in [4] it was 11.7 µM and > 10 µM; in experiment [5] it was 1.08 µM and 3.58 µM; in [6], 12.9 µM and > 10 µM. Moreover, the TGI was above 29.7 µM in [7]; 11.3 µM and > 10 µM in [8]; 14.1 µM and > 10 µM in experiment [9]; 1.47 µM and 1.91 µM in [10].
As to `COc1cc2cc(Oc3cccc(NC(=O)Nc4cc(C(F)(F)F)cc(C(F)(F)F)c4)c3)c(C)nc2cc1OC`, the GI50 is 0.918 µM in [1]; 1.42 µM in [2]; 1.19 µM in [3]; 1.48 µM in experiment [4]; 2.48 µM in experiment [5]; 1.45 µM in experiment [6]. Also, the GI50 in [7] is 1.13 µM; in [8] it was 0.406 µM; in experiment [9], 1.08 µM; in experiment [10], 1 µM. Moreover, the total growth inhibition concentration (TGI) stood at 2.46 µM in experiment [1]; 4.75 µM in [2]; 3.09 µM in experiment [3]; 5.67 µM in [4]; 5.49 µM in experiment [5]; 3.21 µM in experiment [6]. Besides, the TGI in experiment [7] was 4.04 µM; in [8], 5.51 µM; in [9] it was 2.47 µM; in [10], 2.88 µM.
For the compound `COc1ccc2c(c1)C(=O)c1c-2c(OCCN(C)C)nc2cc(OC)c(OC)cc12`, the GI50 in experiment [1] is 0.762 µM; in [2], 4.2 µM; in experiment [3], 18.9 µM; in experiment [4], above 100 µM; in experiment [5], above 100 µM; in experiment [6] it was 10.6 µM. In addition, the 50% growth inhibitory concentration (GI50) was 0.197 µM in [7], 1.26 µM in experiment [8], 3.08 µM in experiment [9] and 18.5 µM in [10]. The TGI in experiment [1] was 13.4 µM; in experiment [2] it was 21.5 µM; in experiment [3] it was 35.4 µM; in experiment [4], above 100 µM; in [5], above 100 µM; in [6] it was 24.9 µM. Further, the TGI was above 100 µM in experiment [7], 5.23 µM in experiment [8], 19.1 µM in experiment [9] and 61.6 µM in experiment [10].
For `CCCCCC[C@H]1C(=O)O[C@H](C)[C@H](NC(=O)c2cccc(NC=O)c2OC)C(=O)O[C@@H](C)[C@@H]1OC(=O)CCC` (tested in a mixture with another compound), the GI50 was 9.77 µM in [1]; 7.24 µM in experiment [2]; 16.2 µM in experiment [3]; 11.2 µM in experiment [4]; 2.81 µM in [5]; 15.5 µM in experiment [6]. Besides, the GI50 in experiment [7] was 5.64 µM; in experiment [8], 12.2 µM; in experiment [9] it was 8.2 µM; in experiment [10], 16 µM. In addition, the TGI was determined as 31.4 µM in experiment [1]; 22.8 µM in [2]; 33.3 µM in experiment [3]; 35.5 µM in experiment [4]; 11.9 µM in experiment [5]; 33.3 µM in experiment [6]. Besides, the TGI came to 26.6 µM in experiment [7], 37.9 µM in experiment [8], 21.5 µM in experiment [9] and 38.3 µM in experiment [10].
As to `NCCCN=c1ccc2c3c1c(O)c1c(O)ccc(=O)c1c3[nH]n2CCNCCO`, the GI50 in experiment [1] is 1.88 µM; in experiment [2], 0.571 µM and 0.304 µM; in [3], 5.48 µM and 6.41 µM; in experiment [5], 4.32 µM; in [6], 0.854 µM and 1.53 µM; in experiment [7], 0.343 µM. Moreover, the GI50 in [8] is 2.93 µM; in [9], 0.606 µM and 0.485 µM; in experiment [10], 3.67 µM. In addition, the TGI in experiment [1] is 11.6 µM and 39 µM; in experiment [2] it was 12.3 µM and 21.8 µM; in experiment [4], 15.8 µM; in [5], 14.1 µM and 105 µM; in [6], 5.31 µM and 7.66 µM; in [7], 7.68 µM and 19.4 µM. The total growth inhibition concentration (TGI) in experiment [8] was 9.94 µM and 22.3 µM; in experiment [9], 5.61 µM and 27.7 µM; in experiment [10], 14.2 µM and 28 µM.

One may read the GI50 as the concentration that inhibits growth by half. The TGI is the concentration at which net growth stops. Higher therefore signals less potent growth arrest.
